Data from PMC11203676, “Synthesis, Molecular Electron Density Theory Study, Molecular Docking, and Pharmacological Evaluation of New Coumarin–Sulfonamide–Nitroindazolyl–Triazole Hybrids as Monoamine Oxidase Inhibitors” (International Journal of Molecular Sciences, 2024).

Key:
hMAO-A = target: T1, hMAO-A (Homo sapiens, UniProt P21397); test: biochemical; settings: for inhibition at 10 µM: read-out: hMAO-A % Inhibition
T1 construct: purchased Sigma Aldrich (Milan, Italy); host or cells: baculovirus-infected insect cells
T1 sequence (P21397 1-527): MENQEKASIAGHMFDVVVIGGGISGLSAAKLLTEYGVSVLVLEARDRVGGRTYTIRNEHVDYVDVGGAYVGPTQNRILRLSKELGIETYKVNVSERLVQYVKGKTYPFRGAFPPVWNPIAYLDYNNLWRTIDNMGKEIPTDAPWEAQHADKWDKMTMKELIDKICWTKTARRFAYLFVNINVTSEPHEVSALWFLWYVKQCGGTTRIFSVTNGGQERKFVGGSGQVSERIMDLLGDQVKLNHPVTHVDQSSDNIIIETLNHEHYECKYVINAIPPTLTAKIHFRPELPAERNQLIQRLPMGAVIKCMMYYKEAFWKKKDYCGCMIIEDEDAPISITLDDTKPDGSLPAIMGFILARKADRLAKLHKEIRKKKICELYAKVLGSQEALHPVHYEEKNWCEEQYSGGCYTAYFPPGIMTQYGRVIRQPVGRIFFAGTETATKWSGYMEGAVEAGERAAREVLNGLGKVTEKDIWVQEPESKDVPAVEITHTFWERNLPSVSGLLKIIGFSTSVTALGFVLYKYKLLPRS
Description: (§1) Human recombinant AChE, BChE from human serum, and human MAOs from baculovirus-infected insect cells were purchased from Sigma Aldrich (Milan, Italy). […] All experiments were carried out in triplicate and results expressed as mean ± SEM.
(§2) AChE/BChE and MAO A/B inhibition were, respectively, determined with the spectrophotometric method of Ellman, and a fluorimetric method using kynuramine as MAO substrate, as previously described.

[1] = target: T2, hAChE (human recombinant AChE) (Homo sapiens, UniProt P22303); test: biochemical
T2 construct: purchased Sigma Aldrich (Milan, Italy)
Description: as §1, §2

[2] = target: T3, hBChE (BChE from human serum) (Homo sapiens, UniProt P06276); test: BChE inhibition, spectrophotometric method of Ellman; type: biochemical; settings: at 10 µM concentration; ni: no inhibition; mean ± SEM (n = 3)
T3 construct: BChE from human serum; purchased Sigma Aldrich (Milan, Italy); host or cells: human serum
Description: as §1, §2

hMAO-B = target: T4, hMAO-B (Homo sapiens, UniProt P27338); test: MAO-B inhibition, fluorimetric method with kynuramine as substrate; type: biochemical; settings: read-out: hMAO-B % Inhibition
T4 construct: purchased Sigma Aldrich (Milan, Italy); host or cells: baculovirus-infected insect cells
T4 sequence (P27338 1-520): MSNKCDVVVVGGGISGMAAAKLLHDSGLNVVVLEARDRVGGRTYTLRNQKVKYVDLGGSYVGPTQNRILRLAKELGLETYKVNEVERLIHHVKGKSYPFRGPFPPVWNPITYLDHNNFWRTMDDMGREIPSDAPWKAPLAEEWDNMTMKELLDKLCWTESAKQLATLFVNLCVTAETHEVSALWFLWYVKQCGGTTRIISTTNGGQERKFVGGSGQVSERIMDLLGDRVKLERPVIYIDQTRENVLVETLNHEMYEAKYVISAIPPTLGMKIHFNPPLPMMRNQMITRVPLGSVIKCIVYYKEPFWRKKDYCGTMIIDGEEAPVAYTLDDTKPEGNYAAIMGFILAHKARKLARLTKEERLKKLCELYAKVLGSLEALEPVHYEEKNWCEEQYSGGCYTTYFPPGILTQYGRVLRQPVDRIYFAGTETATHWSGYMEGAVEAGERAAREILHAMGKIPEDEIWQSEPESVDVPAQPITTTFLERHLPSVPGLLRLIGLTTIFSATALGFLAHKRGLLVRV
Description: as §1, §2

T2 sequence (P22303 32-614): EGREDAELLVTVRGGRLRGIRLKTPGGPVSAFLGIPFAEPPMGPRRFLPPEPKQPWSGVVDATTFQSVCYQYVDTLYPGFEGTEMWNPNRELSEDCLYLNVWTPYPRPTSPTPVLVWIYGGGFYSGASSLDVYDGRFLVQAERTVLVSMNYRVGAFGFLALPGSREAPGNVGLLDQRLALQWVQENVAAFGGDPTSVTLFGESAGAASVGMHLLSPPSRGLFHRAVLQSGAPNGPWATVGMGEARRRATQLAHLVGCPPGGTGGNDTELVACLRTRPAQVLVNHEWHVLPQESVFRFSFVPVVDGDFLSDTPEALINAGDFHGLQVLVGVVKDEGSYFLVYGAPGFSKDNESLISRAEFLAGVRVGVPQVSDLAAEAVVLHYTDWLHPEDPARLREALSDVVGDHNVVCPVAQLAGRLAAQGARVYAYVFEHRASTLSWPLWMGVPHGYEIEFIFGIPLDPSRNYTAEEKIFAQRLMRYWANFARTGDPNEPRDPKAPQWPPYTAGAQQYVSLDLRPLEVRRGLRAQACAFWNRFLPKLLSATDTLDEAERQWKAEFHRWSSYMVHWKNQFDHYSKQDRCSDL
T3 sequence (P06276 29-602): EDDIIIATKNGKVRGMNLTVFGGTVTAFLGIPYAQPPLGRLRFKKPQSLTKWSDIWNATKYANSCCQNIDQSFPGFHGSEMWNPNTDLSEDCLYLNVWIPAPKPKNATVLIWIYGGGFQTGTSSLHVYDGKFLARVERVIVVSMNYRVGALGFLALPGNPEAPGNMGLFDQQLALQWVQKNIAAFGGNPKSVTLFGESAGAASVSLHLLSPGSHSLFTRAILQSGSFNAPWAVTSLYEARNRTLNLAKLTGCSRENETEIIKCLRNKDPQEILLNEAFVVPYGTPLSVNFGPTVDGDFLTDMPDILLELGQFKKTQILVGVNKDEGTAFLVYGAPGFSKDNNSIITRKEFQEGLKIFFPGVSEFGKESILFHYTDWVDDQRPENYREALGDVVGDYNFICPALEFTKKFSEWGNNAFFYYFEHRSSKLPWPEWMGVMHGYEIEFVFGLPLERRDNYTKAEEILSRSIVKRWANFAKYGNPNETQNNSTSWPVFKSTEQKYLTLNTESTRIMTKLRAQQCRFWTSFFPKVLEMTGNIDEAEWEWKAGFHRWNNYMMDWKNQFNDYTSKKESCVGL

| melting point [°C] | Compound | IC50 (hMAO-A) [µM] | inhibition at 10 µM (hMAO-A) [%] | inhibition at 10 µM [1] [%] | hBChE % Inhibition [2] | inhibition at 10 µM (hMAO-B) [%] | inhibition at 10 µM [2] [%] |
| --- | --- | --- | --- | --- | --- | --- | --- |
| 244 to 246 | CN(c1ccc2oc(=O)ccc2c1)S(=O)(=O)c1ccc(Cl)cc1 | – | – | – | – | – | – |
| – | Cc1ccc(S(=O)(=O)Nc2ccc3oc(=O)ccc3c2)cc1 [11a, 4-Methyl-N-(2-oxo-2H-chromen-6-yl)benzenesulfonamide] | 2.46 ± 0.67 | 76 ± 3 | 55 ± 3 | ni | 45 ± 2 | – |
| – | COc1ccc(S(=O)(=O)Nc2ccc3oc(=O)ccc3c2)cc1 [11b, 4-Methoxy-N-(2-oxo-2H-chromen-6-yl)benzenesulfonamide] | – | 26 ± 3 | 57 ± 4 | ni | 34 ± 3 | – |
| – | O=c1ccc2cc(NS(=O)(=O)c3ccc(Cl)cc3)ccc2o1 [11c, 4-Chloro-N-(2-oxo-2H-chromen-6-yl)benzenesulfonamide] | – | 9 ± 4 | 55 ± 3 | ni | 26 ± 4 | – |
| – | C#CCN(c1ccc2oc(=O)ccc2c1)S(=O)(=O)c1ccc(C)cc1 [13a, 4-Methyl-N-(2-oxo-2H-chromen-6-yl)-N-(prop-2-yn-1-yl)benzenesulfonamide] | – | 13 ± 5 | 60 ± 3 | ni | 12 ± 1 | – |
| – | C#CCN(c1ccc2oc(=O)ccc2c1)S(=O)(=O)c1ccc(OC)cc1 [13b, 4-Methoxy-N-(2-oxo-2H-chromen-6-yl)-N-(prop-2-yn-1-yl)benzenesulfonamide] | – | 22 ± 7 | 49 ± 3 | ni | 28 ± 2 | – |
| – | C#CCN(c1ccc2oc(=O)ccc2c1)S(=O)(=O)c1ccc(Cl)cc1 [13c, 4-Chloro-N-(2-oxo-2H-chromen-6-yl)-N-(prop-2-yn-1-yl)benzenesulfonamide] | – | 37 ± 5 | 48 ± 2 | ni | 20 ± 2 | – |
| – | Cc1ccc(S(=O)(=O)N(Cc2cn(CCn3ncc4ccc([N+](=O)[O-])cc43)nn2)c2ccc3oc(=O)ccc3c2)cc1 [14a, 4-Methyl-N-((1-(2-(6-nitro-1H-indazol-1-yl)ethyl)-1H-1,2,3-triazol-4-yl)methyl)-N-(2-oxo-2H-chromen-6-yl)benzenesulfonamide] | 14.8 ± 1.6 | 76 ± 5 | 51 ± 2 | – | 39 ± 3 | 48 ± 4 |
| – | COc1ccc(S(=O)(=O)N(Cc2cn(CCn3ncc4ccc([N+](=O)[O-])cc43)nn2)c2ccc3oc(=O)ccc3c2)cc1 [14b, 4-Methoxy-N-((1-(2-(6-nitro-1H-indazol-1-yl)ethyl)-1H-1,2,3-triazol-4-yl)methyl)-N-(2-oxo-2H-chromen-6-yl)benzenesulfonamide] | 16.9 ± 1.9 | 81 ± 5 | 44 ± 3 | – | 23 ± 4 | 31 ± 5 |
| – | O=c1ccc2cc(N(Cc3cn(CCn4ncc5ccc([N+](=O)[O-])cc54)nn3)S(=O)(=O)c3ccc(Cl)cc3)ccc2o1 [14c, 4-Chloro-N-((1-(2-(6-nitro-1H-indazol-1-yl)ethyl)-1H-1,2,3-triazol-4-yl)methyl)-N-(2-oxo-2H-chromen-6-yl)benzenesulfonamide] | 28 ± 2.2 | 67 ± 5 | 42 ± 1 | ni | 45 ± 1 | – |
